Like-named read-outs stand apart in the source and are kept apart here.
Tests used:
LLC cells = assay: Cytotoxic effects of Ganoderma lucidum polysaccharide GLP-1 combined with cisplatin on LLC cells (MTT, absorbance at 570 nm); type: cell-based; details: 48 h, GLP-1 2 mg/mL
Experimental: LLC lung cancer cells were seeded in a 96-well cell culture plate at 3,000 cells per well and incubated at 37° C. in a 5% CO2 incubator for 24 h. […] The cultures were then incubated for another 48 h before measuring the absorbance at 570 nm.

H22-bearing mice = type: in vivo
Experimental: A homogenate suspension of H22 hepatoma solid tumors was injected subcutaneously under the axilla of 65 healthy male C57 mice to create a solid tumor model. Once all mouse tumors averaged a volume of about 230 mm3, mice were randomized into groups based on tumor volume and were administered the respective drugs or drug solvents via oral gavage or intraperitoneal injection for 25 consecutive days. Longest and shortest diameters of tumors were measured every three days to calculate tumor volume, and mouse weights were recorded every three days. At the end of the experiment, tumors, spleens, and thymuses were harvested and weighed to calculate tumor, spleen, and thymus indices.
Based on previous experimental results, Ganoderma lucidum polysaccharide GLP-1 was administered at a low dose of 50 mg/kg and a high dose of 150 mg/kg as shown in Table 20.
(§1) Where TRTV is the relative tumor volume in the experimental group, and CRTV is the relative tumor volume in the model control group. Relative tumor volume (RTV)=Vt/V0, where Vt is the tumor volume on day t of dosing, and V0 is the tumor volume at the time of grouping.
(§2) Where T represents the average tumor weight in the treatment group, and C represents the average tumor weight in the model control group.
(§3) Spleen and thymus organ coefficients: After the last dose, spleen, thymus, and tumor weights are measured, and organ coefficients are calculated.
(§4) Tumor index (%)=(tumor weight/body weight)×100%.
(§5) Immune organ index (mg/g)=(organ mass/body weight)×1000.
(§6) Statistical analyses were performed using SPSS 17.0, with the significance level set at P≤0.05. Measurement data were expressed as mean±standard deviation (x±s). Normality and homogeneity of variance were tested using Leven's test. If data met normality and homogeneity of variance (P>0.05), one-way ANOVA and LSD test were used for statistical analysis. […] If the Kruskal-Wallis test was statistically significant (P<0.05), comparison analysis was performed using Dunnett's Test (a non-parametric method). Evaluation considered statistical differences and biological significance.

[1] = system: 4T1 breast tumor-bearing mice; type: in vivo, BALB/c mice
Experimental: A suspension of 4T1 breast cancer cells was injected subcutaneously into the left shoulder back of 60 healthy female BALB/c mice to create solid tumor models. When the mean tumor volume reached approximately 190 mm^3, the mice were randomized into groups based on tumor volume, and were administered the respective drugs or drug solvents via oral gavage or intraperitoneal injection over 18 consecutive days. Longest and shortest diameters of tumors were measured every three days to calculate tumor volume, and mouse weights were recorded every three days. At the end of the experiment, tumors, spleens, and thymuses were harvested and weighed to calculate tumor, spleen, and thymus indices.
Based on previous experimental results, Ganoderma lucidum polysaccharide GLP-1 was administered at a low dose of 50 mg/kg and a high dose of 150 mg/kg as shown in Table 27.
as §1, §2, §3, §4, §5
as §6, with “(˜±s).” for “(x±s).”

LLC-bearing mice = details: cisplatin 4 mg/kg, Kanglaite 1404 mg/kg
[2] = cisplatin 3 mg/kg, GLP-1 low-dose 50 mg/kg
[3] = blood, flow cytometry, GLP-1 low-dose 130 mg/kg

With `N.N.[Cl][Pt][Cl]` [Cisplatin, cisplatin] the Inhibition rate (LLC cells) was 35.2%, the Survival time (H22-bearing mice; 25 days of dosing, cisplatin 3 mg/kg, GLP-1 low-dose 50 mg/kg) was 25 ± 0 days and the “Tumor growth inhibition rate vs. the model control group” value (H22-bearing mice; H22-bearing mice, end of experiment, cisplatin alone) was 84.2%. The “Tumor growth inhibition rate compared to the model control group” value (H22-bearing mice; by tumor weight, cisplatin 3 mg/kg, GLP-1 low-dose 50 mg/kg) was 84.2%, the Mortality rate (H22-bearing mice; [2]) was 0% and the Number of deaths (H22-bearing mice; [2]) was 0. For the same molecule, the Number of deaths ([1]; 4T1 breast tumor-bearing mice, 8 animals, cisplatin 4 mg/kg i.p.) was 1, the Survival time ([1]; 4T1 breast tumor-bearing mice, 18-day dosing, cisplatin 4 mg/kg i.p.) was 17.1 ± 2.3 days and the Tumor volume ([1]; 4T1 breast tumor-bearing mice, D0, cisplatin 4 mg/kg i.p.) was 190.5 ± 34.8 mm^3. The “Tumor growth inhibition rate vs. the model control group” value ([1]; 4T1 breast tumor-bearing mice, end of experiment, cisplatin 4 mg/kg i.p.) was 71.6%, the “Tumor growth inhibition rate compared to the model control group” value ([1]; by tumor weight, cisplatin 4 mg/kg, GLP-1 low-dose 50 mg/kg) was 71.6% and the Tumor volume (LLC-bearing mice; D1, GLP-1 low-dose 130 mg/kg) was 94.99 mm^3. It also gave a Tumor volume (LLC-bearing mice; D4, GLP-1 low-dose 130 mg/kg) of 150.58 mm^3, a Tumor volume (LLC-bearing mice; D7, GLP-1 low-dose 130 mg/kg) of 8.91 mm^3 and a Tumor volume (LLC-bearing mice; D10, GLP-1 low-dose 130 mg/kg) of 6.51 mm^3. The Tumor volume (LLC-bearing mice; D13, GLP-1 low-dose 130 mg/kg) was 27.36 mm^3, the Tumor volume (LLC-bearing mice; D16, GLP-1 low-dose 130 mg/kg) was 36.09 mm^3 and the Tumor volume (LLC-bearing mice; D19, GLP-1 low-dose 130 mg/kg) was 71.00 mm^3. The Tumor volume (LLC-bearing mice; D22, GLP-1 low-dose 130 mg/kg) was 824.01 mm^3, the Tumor volume (LLC-bearing mice; D25, GLP-1 low-dose 130 mg/kg) was 976.79 mm^3 and the Tumor histopathology (LLC-bearing mice; H&E, x200) was “large areas of necrosis and hemorrhage were visible at the tumor center, with abundant tumor cells”. The Tumor coefficient (LLC-bearing mice; after last dose, GLP-1 low-dose 130 mg/kg) was 7.528 ± 2.567 %, the “CD3^+/CD4^+” value (LLC-bearing mice; [3]) was 0.093 ± 0.025 and the “CD3^+/CD8^+” value (LLC-bearing mice; [3]) was 1.571 ± 0.406. For the same molecule, the “Tumor growth inhibition rate” value (LLC-bearing mice; by tumor weight vs model control, GLP-1 low-dose 130 mg/kg) was 61.6%, the “Blood WBC level compared to the model control group” value (LLC-bearing mice; GLP-1 low-dose 130 mg/kg) was “significantly decreased” and the “Body weight compared to the model control group” value (LLC-bearing mice; GLP-1 low-dose 130 mg/kg) was “significantly decreased after administration from D7 to D25”. For the same molecule, the Mortality rate (LLC-bearing mice; GLP-1 low-dose 130 mg/kg) was 0%, the Number of deaths (LLC-bearing mice; GLP-1 low-dose 130 mg/kg) was 0 and the “Number of surviving animals” value (LLC-bearing mice; GLP-1 low-dose 130 mg/kg) was 8.

Reference: patent US20250144132A1, “POLYSACCHARIDE COMPOUND WITH A DEFINED MOLECULAR STRUCTURE THAT CAN ELIMINATE THE TOXIC SIDE EFFECTS OF CHEMOTHERAPY DRUGS” (priority 2023, published 2025)
